Legend:
[1] = system: mouse neutrophils; experiment: Isoluminol-dependent chemiluminescence assay of MPO secretion in purified mouse neutrophils; type: cell-based; details: 10 μM inhibitor, PMA stimulated, FIG. 3B
Source text: FIGS. 3A-C illustrate the effect of Inhibitors C1, C2, C4, C5, and C6 and comparator Nexinhib 20 (shown as “C20”) on MPO secretion of mouse neutrophils. FIG. 3A is a schematic representation of a cell-based secondary screening assay used to analyze the potency the potency of Rab27a-JFC1 inhibitors for their ability to decrease exocytosis of intact human neutrophil. This cell-based assay measures the secretion of myeloperoxidase (MPO) by human neutrophils using cell-impermeant isoluminol-dependent chemiluminescence in the absence of exogenous peroxidases.
Human neutrophils were isolated from normal donor's blood by Ficoll density centrifugation, as described previously (23). Murine bone marrow-derived neutrophils were isolated using a Percoll gradient fractionation system as described (24). A three-layer Percoll gradient was used (52%, 64%, and 72%), and neutrophils were isolated from the 64-72% interface, washed, and used in the assays.
Extracellular MPO-dependent reactive oxygen species (ROS) production was measured using the chemiluminescence reactions mediated by isoluminol (25). To this end, 3×10^5 neutrophils were resuspended in serum-free RPMI 1640 medium in the presence of cell-impermeant isoluminol, and reactions were carried out in the absence of exogenous peroxidase. Neutrophils were incubated in the presence of compounds or DMSO (0.5%) pin-tooled into 384-well plates in a […]. Control experiments were run in parallel in the presence of [COMPOUND LEFT OUT] (0.5 mM) to inhibit endogenous myeloperoxidase. After addition of stimuli (phorbol 12-myristate 13-acetate, “PMA”) or vehicle using liquid handling devices (BioRaptor FRD, Beckman Coulter), MPO-dependent chemiluminescence was continuously monitored for 30 min at 37 °C using a 2104 EnVision multilabel plate reader. For secretion assays, 0.5×10^6 neutrophils were incubated in RPMI 1640 medium in polystyrene 96-well plates in the presence of Inhibitors or dimethyl sulfoxide (DMSO) control for 1 hour and stimulated for the indicated times at 37 °C with PMA (0.1 μg/ml), GM-CSF (10 ng/ml), and fMLP (1 μM) or DMSO control. The cells were spun down, and supernatants were transferred to clean plates using plate filters to avoid contamination from cellular secretory proteins. MPO was measured by ELISA (R&D Systems).
Results: FIG. 3B is a graph showing the effect of Inhibitors C1, C2, C4, C5, and C6 on secreted MPO-dependent reaction using the isoluminol-dependent chemiluminescence assay in highly purified mouse neutrophils. On the graph of FIG. 3B, the pre-fix “NS” means “no stimuli” where the cells were treated with 10 μM C1, C2, C4, C5, C6, and C20 alone without any exocytosis stimuli. The pre-fix “PMA” means the cells were stimulated with PMA to secrete MPO and were treated with 10 μM of the designated Inhibitor. […] Mean % inhibition: C1, 76.74; C2, 59.85; C4, 70.9; C6, 62.4; C20, 99.22.

[2] = system: Nlrp3^A350V cre ERT2 mice; experiment: Nlrp3 A350V cre ERT2 mouse model of cryopyrin-associated periodic syndrome (CAPS); type: in vivo; details: 30 mg/Kg i.p.; for Number of leukocytes and leukocyte subtypes: 7 or 13 days, FIG. 9B; for Activation of circulating neutrophils (CD63 upregulation): FIG. 9D; for Neutrophilic infiltration into the kidney (total MMP9 and MPO levels): tissues day 13, FIG. 9F
Experimental: […] cre ERT2 and control mice were injected i.p. with 50 mg/kg tamoxifen followed by C6 (30 mg/Kg) or vehicle as described. B) Total leukocytes numbers and subtypes were not affected. C) Animals suffer weight loss with disease progression. D) The activation of circulating neutrophils is attenuated by C6. E, The percentage of immature (pro-inflammatory, Ly6G-) neutrophils in circulation (blood) in Nlrp3^A350V is attenuated by treatment with C6 (4.29%) as compared to vehicle (11.0%). […] F, The protection was specific for kidneys.
In this model, disease is caused by the Nlrp3^A350V mutations. The Nlrp3^A350V inducible mouse model (MWS CreT) is homologous to humans suffering from CAPS with the Muckle-Wells A352V mutation in the NLRP3 gene. The tamoxifen inducible Nrp3^A350V cre ERT2 and control animals were injected (i.p.) with 50 mg/kg tamoxifen free base to induce disease (J Immunol 189, 2707-2711, doi:10.4049/jimmunol.1101737 (2012)). The mice (6-12 weeks old) had access to food and water ad libitum. All animal studies were performed in compliance with the U.S. Department of Health and Human Services Guide for the Care and Use of Laboratory Animals and according to NIH and institutional guidelines. All animal protocols and procedures were approved by the University of California San Diego Institutional Animal Care and Use Committees (IACUC). Mice were treated with the neutrophil specific inhibitor NEIa-C6 or vehicle (5% DMSO in PBS). In this model, NLRP3^A350V disease develops progressively in 15 days after first induction with tamoxifen. Between day 0 and day 5 mice were injected (i.p) every other day with tamoxifen followed by NEIa-C6 (30 mg/Kg) or vehicle. Next, administration of NEIa-C6 or vehicle continued until day 13, in the absence of tamoxifen. Blood samples were obtained at day 7 and blood and tissues harvested at day 13. […] The effect was specific for kidneys as lung and liver infiltration was unaffected (FIG. 9G).

CCN(CC)CCNC(=O)/C(=C/c1cccc([N+](=O)[O-])c1)n1cncn1 [154 (C6)]
Inhibition of exocytosis vs DMSO control [1]: significant inhibition of exocytosis
inhibition at 10 µM ([1]; Mus musculus, Neutrophil): 62.4%
Number of leukocytes and leukocyte subtypes ([2]; listed as C6): not affected
Number of leukocytes and leukocyte subtypes ([2]; listed as NEIa-C6): did not affect the number of any leukocyte subtype
Neutrophil mediated inflammation in vivo ([2]; FIG. 9): inhibits neutrophil mediated inflammation in vivo
Activation of circulating neutrophils (CD63 upregulation) ([2]; listed as C6): attenuated
Activation of circulating neutrophils (CD63 upregulation) ([2]; listed as NEIa-C6): decreased neutrophil activation in vivo
Lung and liver neutrophilic infiltration ([2]; FIG. 9G): unaffected
Neutrophilic infiltration into the kidney (total MMP9 and MPO levels) ([2]; listed as C6): significantly decreased
Neutrophilic infiltration into the kidney (total MMP9 and MPO levels) ([2]; listed as NEIa-C6): significantly protected kidneys from neutrophilic infiltration
Percentage of immature (pro-inflammatory, Ly6G-) neutrophils in blood ([2]; vehicle 11.0%, FIG. 9E): 4.29%
Weight loss ([2]; vs vehicle, FIG. 9C): partially protected from weight loss
Number of pro-inflammatory immature neutrophils in blood ([2]; vs vehicle, FIG. 9E): decreased the number of pro-inflammatory immature neutrophils in blood

Source: patent US20260355189A1, “SMALL MOLECULE INHIBITORS OF NEUTROPHIL EXOCYTOSIS AND INFLAMMATION” (THE SCRIPPS RESEARCH INSTITUTE, priority 2022, published 2026)
